Experimental findings from ChEMBL document CHEMBL1201862, “PubChem BioAssay data set” (2004) are described below.

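Where inhibition never reached the appropriate level, the endpoint shown equals the highest concentration tested. Otherwise, values were interpolated linearly from a five-concentration, 48-hour dose response in 96-well plates. Here, GI50 denotes the concentration required for 50% inhibition of growth.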 Calls of active or inactive are those of the source. Rule as the data show it: active = GI50 up to about 1.1 µM and inactive = higher.

Some test systems named below: EKVX; HCC 2998; HCT-116; HCT-15; K562; MOLT-4; NCI-H23; OVCAR-3; OVCAR-5; OVCAR-8; SF-268; SF-539; SK-MEL-5; SN12C; SNB-19; TK-10; UACC-62; UO-31.
Experiment in all cases: inhibition of tumour cell growth, NCI panel, 48 h

For `O=S(=O)(NCn1ccc2ccccc21)c1ccccc1`, the GI50 in the assay on EKVX was > 100 µM (inactive); with HCC 2998, > 100 µM (inactive); with HCT-116 it was 49.3 µM (inactive); in the assay on HCT-15, > 57.7 µM; in the assay on K562, > 100 µM (inactive); in the assay on MOLT-4, > 100 µM (inactive). In addition, the GI50 in the assay with NCI-H23 is > 100 µM (inactive); with OVCAR-3, > 100 µM (inactive); in the assay with OVCAR-5 it was > 100 µM (inactive); in the assay on OVCAR-8 it was > 76.2 µM (inactive); with SF-268, > 57.8 µM (inactive); in the assay with SF-539, > 100 µM (inactive). The GI50 was > 100 µM (inactive) with SK-MEL-5; > 100 µM (inactive) in the assay with SN12C; > 31.6 µM (inactive) in the assay with SNB-19; > 100 µM (inactive) with TK-10; > 73.8 µM (inactive) in the assay with UACC-62; > 100 µM (inactive) with UO-31.
Turning to `O=c1[nH]c(C2CCCCC2)nc2cc(Cl)ccc12`, the GI50 was > 100 µM (inactive) with EKVX; > 100 µM (inactive) in the assay on HCC 2998; > 100 µM (inactive) with HCT-116; > 100 µM in the assay with HCT-15; > 100 µM (inactive) with K562; > 100 µM (inactive) with MOLT-4. For the same compound, the GI50 in the assay on NCI-H23, in the assay on OVCAR-3, with OVCAR-5, with OVCAR-8, in the assay with SF-268 and in the assay with SF-539 was > 100 µM (inactive) throughout. Also, the GI50 is > 100 µM (inactive) with SK-MEL-5; > 100 µM (inactive) with SN12C; > 100 µM (inactive) with SNB-19; > 100 µM (inactive) with TK-10; > 100 µM (inactive) in the assay on UACC-62; 58.2 µM (inactive) in the assay with UO-31.
On to `Cc1ccc2nc3cc(C)c(=O)cc-3sc2c1`, for which the GI50 is > 100 µM (inactive) in the assay on EKVX; > 100 µM (inactive) in the assay with HCC 2998; > 100 µM (inactive) in the assay with HCT-116; 52.8 µM with HCT-15; 13.6 µM (inactive) with K562; 11.8 µM (inactive) with MOLT-4. Moreover, the GI50 is 57.7 µM (inactive) in the assay with NCI-H23; > 100 µM (inactive) in the assay with OVCAR-3; > 100 µM (inactive) in the assay with OVCAR-5; 56 µM (inactive) with OVCAR-8; 81.1 µM (inactive) in the assay with SF-268; > 100 µM (inactive) with SF-539. For the same compound, the GI50 with SK-MEL-5 was 44.9 µM (inactive); in the assay with SN12C, > 100 µM (inactive); in the assay with SNB-19 it was > 100 µM (inactive); in the assay on TK-10 it was > 100 µM (inactive); with UACC-62, 28.7 µM (inactive); in the assay with UO-31 it was 67.3 µM (inactive).
As to `CC1CC(C)C2OC2(C)C[C@H](C)C(=O)NC(C)C(=O)N(C)[C@H](Cc2c(Br)[nH]c3ccccc23)C(=O)N[C@@H](c2ccc(O)cc2)CC(=O)O1` (some centres undefined), the GI50 in the assay with EKVX was 2.02 µM (inactive); in the assay with HCC 2998, 0.11 µM (active); in the assay on HCT-116, 0.0396 µM (active); with HCT-15, 39.3 µM; in the assay with K562, 0.703 µM (active); in the assay with MOLT-4 it was 1.34 µM (inactive). Besides, the GI50 in the assay with NCI-H23 was 0.902 µM (active); with OVCAR-3, 0.49 µM (active); in the assay with OVCAR-5, 0.824 µM (active); with OVCAR-8, 4.89 µM (inactive); with SF-268, 0.336 µM (active); with SF-539, 0.111 µM (active). For the same compound, the GI50 was 0.0933 µM (active) in the assay on SK-MEL-5; 0.776 µM (active) in the assay with SN12C; 0.0661 µM (active) in the assay with SNB-19; 0.741 µM (active) in the assay on TK-10; 2.5 µM (inactive) in the assay on UACC-62; 10 µM (inactive) with UO-31.
As to `CC(=O)NC(CCCNC(=O)OCc1ccccc1)C(=O)O` (centres undefined), the GI50 in the assay with EKVX is > 100 µM (inactive); in the assay with HCC 2998, > 100 µM (inactive); in the assay with HCT-116 it was > 100 µM (inactive); in the assay with HCT-15, > 100 µM; in the assay with K562, > 100 µM (inactive); in the assay on MOLT-4, > 100 µM (inactive). Besides, the GI50 in the assay with NCI-H23, in the assay with OVCAR-3, in the assay on OVCAR-5, in the assay on OVCAR-8, in the assay on SF-268 and in the assay with SF-539 was > 100 µM (inactive) each time. In addition, the GI50 in the assay on SK-MEL-5, with SN12C, with SNB-19, in the assay on TK-10, in the assay with UACC-62 and in the assay with UO-31 was > 100 µM (inactive) each time.
Regarding `C=CCNC(=O)/C=C\C(=O)O`, the GI50 in the assay with EKVX was > 100 µM (inactive); in the assay on HCC 2998, > 100 µM (inactive); in the assay on HCT-116, > 100 µM (inactive); in the assay with HCT-15, > 100 µM; in the assay with K562, > 100 µM (inactive); in the assay on MOLT-4 it was > 100 µM (inactive). In addition, the GI50 in the assay on NCI-H23, with OVCAR-3, in the assay with OVCAR-5, with OVCAR-8, in the assay on SF-268 and with SF-539 was > 100 µM (inactive) each time. The GI50 in the assay on SK-MEL-5, in the assay on SN12C, in the assay on SNB-19, with TK-10, in the assay with UACC-62 and in the assay on UO-31 was > 100 µM (inactive) throughout.
As to `CC(=O)/C=C\C1CC2C=CC1C2` (centres undefined), the GI50 was 64.9 µM (inactive) in the assay on EKVX; 24.3 µM (inactive) with HCC 2998; 15.2 µM (inactive) in the assay with HCT-116; 22.5 µM with HCT-15; 21.6 µM (inactive) in the assay on K562; 20.8 µM (inactive) with MOLT-4. Moreover, the GI50 is 36.1 µM (inactive) in the assay with NCI-H23; 37.8 µM (inactive) in the assay on OVCAR-3; 53.3 µM (inactive) in the assay with OVCAR-5; 36.3 µM (inactive) with OVCAR-8; 25.8 µM (inactive) in the assay on SF-268; 37.4 µM (inactive) with SF-539. For the same compound, the GI50 with SK-MEL-5 was 57.9 µM (inactive); in the assay with SN12C it was 26.7 µM (inactive); in the assay on SNB-19 it was 53.5 µM (inactive); in the assay with TK-10, 86.5 µM (inactive); in the assay with UACC-62, 58.3 µM (inactive); in the assay with UO-31, 41 µM (inactive).
For `CCOC(=O)CCC1(C(=O)OCC)CCCC1=O` (centres undefined), the GI50 is > 100 µM (inactive) in the assay with EKVX; > 100 µM (inactive) with HCC 2998; 68.4 µM (inactive) in the assay with HCT-116; 78.3 µM in the assay on HCT-15; > 100 µM (inactive) in the assay with K562; > 100 µM (inactive) in the assay on MOLT-4. Moreover, the GI50 in the assay on NCI-H23, with OVCAR-3, in the assay with OVCAR-5, with OVCAR-8, with SF-268 and in the assay with SF-539 was > 100 µM (inactive) throughout. Further, the GI50 with SK-MEL-5, with SN12C, in the assay with SNB-19, in the assay with TK-10, with UACC-62 and in the assay on UO-31 was > 100 µM (inactive) each time.
